Target: T1, KRAS G12C (Homo sapiens, UniProt P01116, G12C)
T1 construct: KRAS G12C (amino acid region: 1-169)
Assay: Inhibitory activity on the KRAS G12C nucleotide (GDP-GTP) exchange reaction
Assay type: biochemical
Details: Bodipy FL GDP-bound KRAS G12C 25 nM; preincubation at 25° C. for 4 hours; SOS1 100 nM, GppNHp 1 μM, reaction for 30 minutes
Description: Test Example 2: Evaluation of Inhibitory Activity of Compounds on the KRAS G12C Nucleotide (GDP-GTP) Exchange Reaction
The inhibitory activity of compounds on the exchange reaction of GDP into GppNHp in Bodipy (trademark) FL-bound KRAS G12C was examined by fluorescence measurement using human recombinant KRAS G12C and SOS1 proteins.
For the preparation of KRAS G12C to which Bodipy FL GDP was bound, first, 50 µM KRAS G12C (amino acid region: 1-169) and 1 mM Bodipy FL GDP (Invitrogen, G22360) were incubated for 1 hour in a buffer (20 mM Tris-HCl (pH 7.5), 50 mM NaCl, 1 mM DTT) in ice in the presence of 2.5 mM EDTA. Thereafter, MgCl2 with a final concentration of 10 mM was added, and the mixture was incubated at room temperature for 30 minutes. The protein was allowed to pass through a NAP-5 column to remove free nucleotides and was used for compound evaluation.
For the measurement of the inhibitory activity of compounds on nucleotide exchange reaction, first, the compound of the disclosure was diluted stepwise with dimethyl sulfoxide (DMSO). Subsequently, a solution of the gradually diluted compound of the disclosure in DMSO (the final concentration of DMSO: 5%) and KRAS G12C (25 nM) bound to Bodipy FL GDP were added to a reaction buffer (20 mM Tris-HCl (pH 7.5), 100 mM NaCl, 1 mM MgCl2, 2 mM DTT, 0.1% Tween20), followed by preincubation at 25° C. for 4 hours. Thereafter, Son of Sevenless Homolog 1 (SOS1, amino acid region: 564-1049) and GppNHp (GMPPNP, Jena Bioscience GmbH, NU-401-50) were added such that their final concentration was 100 nM and 1 μM respectively, followed by reaction for 30 minutes. The change in fluorescence intensity of Bodipy FL (excitation wavelength: 485 nm, fluorescence wavelength: 520 nm) immediately after the start of reaction and after 30 minutes from the start of reaction was standardized. The signal value for only DMSO was determined to be 0% inhibition, and the signal value for no addition of GppNHp was determined to be 100% inhibition. The compound concentration at which 50% inhibition is achieved was determined to be the IC50 (nM) and was calculated.

T1 sequence (P01116 1-169 isoform P01116-2 G12C): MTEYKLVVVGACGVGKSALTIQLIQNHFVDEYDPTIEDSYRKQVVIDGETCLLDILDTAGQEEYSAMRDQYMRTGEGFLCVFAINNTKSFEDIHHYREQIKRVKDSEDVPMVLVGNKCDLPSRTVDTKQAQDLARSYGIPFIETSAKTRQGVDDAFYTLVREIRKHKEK

| Structure (SMILES) | IC50 [nM] |
| --- | --- |
| C=CC(=O)N1CC(NC(=O)c2c(C)nc(CNc3n[nH]c4cc(Cl)c(C(C)(C)C)cc34)n2CC)C1 [Example 12, N-(1-acryloylazetidin-3-yl)-2-(((5-(tert-butyl)-6-chloro-1H-indazol-3-yl)amino)methyl)-1-ethyl-4-methyl-1H-imidazole-5-carboxamide] | 16 |
| C=CC(=O)N1CC(NC(=O)c2c(C)nc(CNc3n[nH]c4cc(Cl)c(C(C)(C)C)cc34)n2C(C)C)C1 [Example 13, N-(1-acryloylazetidin-3-yl)-2-(((5-(tert-butyl)-6-chloro-1H-indazol-3-yl)amino)methyl)-1-isopropyl-4-methyl-1H-imidazole-5-carboxamide] | 15 |
| C=CC(=O)N1CC(NC(=O)c2c(C)nc(CNc3n[nH]c4cc(Cl)c(C(C)(C)C)cc34)n2CCOC)C1 [Example 14, N-(1-acryloylazetidin-3-yl)-2-(((5-(tert-butyl)-6-chloro-1H-indazol-3-yl)amino)methyl)-1-(2-methoxyethyl)-4-methyl-1H-imidazole-5-carboxamide] | 24 |
| C=CC(=O)N1CC(NC(=O)c2c(C)nc(CNc3n[nH]c4cc(Cl)c(C(C)(C)C)cc34)n2Cc2ccccc2)C1 [Example 15, N-(1-acryloylazetidin-3-yl)-1-benzyl-2-(((5-(tert-butyl)-6-chloro-1H-indazol-3-yl)amino)methyl)-4-methyl-JH-imidazole-5-carboxamide] | 84 |
| C=CC(=O)N1CC(NC(=O)c2c(C)nc(CNc3n[nH]c4cc(Cl)c(C(C)(C)C)cc34)n2CCN(C)C)C1 [Example 16, N-(1-acryloylazetidin-3-yl)-2-(((5-(tert-butyl)-6-chloro-1H-indazol-3-yl)amino)methyl)-1-(2-(dimethylamino)ethyl)-4-methyl-JH-imidazole-5-carboxamide] | 25 |
| C=CC(=O)N1CC(NC(=O)c2c(C)nc(CNc3n[nH]c4cc(Cl)c(C(C)(C)C)cc34)n2C2CCCC2)C1 [Example 17, N-(1-acryloylazetidin-3-yl)-2-(((5-(tert-butyl)-6-chloro-1H-indazol-3-yl)amino)methyl)-1-cyclopentyl-4-methyl-JH-imidazole-5-carboxamide] | 17 |
| C=CC(=O)N1CC(NC(=O)c2c(C)nc(CNc3n[nH]c4cc(Cl)c(C(C)(C)C)cc34)n2CCCC)C1 [Example 18, N-(1-acryloylazetidin-3-yl)-1-butyl 2-(((5-(tert-butyl)-6-chloro-JH-indazol-3-yl)amino)methyl)-4-methyl-JH-imidazole-5-carboxamide] | 12 |
| C=CC(=O)N1CC(NC(=O)c2c(C)nc(CNc3n[nH]c4cc(Cl)c(C(C)(C)C)cc34)n2CCC)C1 [Example 19, N-(1-acryloylazetidin-3-yl)-2-(((5-(tert-butyl)-6-chloro-1H-indazol-3-yl)amino)methyl)-4-methyl-1-propyl-1H-imidazole-5-carboxamide] | 9 |
| C=CC(=O)N1CC(NC(=O)c2c(C)nc(CNc3n[nH]c4cc(Cl)c(C(C)(C)C)cc34)n2C(C)CC)C1 (centres unmarked) [Example 20, N-(1-acryloylazetidin-3-yl)-1-(sec-butyl)-2-(((5-(tert-butyl)-6-chloro-1H-indazol-3-yl)amino)methyl)-4-methyl-1H-imidazole-5-carboxamide] | 31 |
| C=CC(=O)N1CC(NC(=O)c2c(C)nc(CNc3n[nH]c4cc(Cl)c(C(C)(C)C)cc34)n2C(F)F)C1 [Example 21, N-(1-acryloylazetidin-3-yl)-2-(((5-(tert-butyl)-6-chloro-1H-indazol-3-yl)amino)methyl)-1-(difluoromethyl)-4-methyl-1H-imidazole-5-carboxamide] | 58 |
| C=CC(=O)N1CC(NC(=O)c2c(C)nc(CNc3n[nH]c4cc(Cl)c(C(C)(C)C)cc34)n2CC(F)(F)F)C1 [Example 22, N-(1-acryloylazetidin-3-yl)-2-(((5-(tert-butyl)-6-chloro-1H-indazol-3-yl)amino)methyl)-4-methyl-1-(2,2,2-trifluoroethyl)-1H-imidazole-5-carboxamide] | 55 |
| C=CC(=O)N1CC(NC(=O)c2c(C)nc(CNc3n[nH]c4cc(Cl)c(C(C)(C)C)cc34)n2C2CC2)C1 [Example 23, N-(1-acryloylazetidin-3-yl)-2-(((5-(tert-butyl)-6-chloro-1H-indazol-3-yl)amino)methyl)-1-cyclopropyl-4-methyl-1H-imidazole-5-carboxamide] | 7 |
| C=CC(=O)N1CC(NC(=O)c2c(C)nc(CNc3n[nH]c4cc(Cl)c(C(C)(C)C)cc34)n2C(C)(C)C)C1 [Example 24, N-(1-acryloylazetidin-3-yl)-1-(tert-butyl)-2-(((5-(tert-butyl)-6-chloro-1H-indazol-3-yl)amino)methyl)-4-methyl-1H-imidazole-5-carboxamide] | 35 |
| C=CC(=O)N1CC(NC(=O)c2c(C(F)(F)F)nc(CNc3n[nH]c4cc(Cl)c(C(C)(C)C)cc34)n2C)C1 [Example 25, N-(1-acryloylazetidin-3-yl)-2-(((5-(tert-butyl)-6-chloro-1H-indazol-3-yl)amino)methyl)-1-methyl-4-(trifluoromethyl)-1H-imidazole-5-carboxamide] | 163 |
| C=CC(=O)N1CC(NC(=O)c2c(I)nc(CNc3n[nH]c4cc(Cl)c(C(C)(C)C)cc34)n2C)C1 [Example 26, N-(1-acryloylazetidin-3-yl)-2-(((5-(tert-butyl)-6-chloro-1H-indazol-3-yl)amino)methyl)-4-iodo-1-methyl-1H-imidazole-5-carboxamide] | 69 |
| C=CC(=O)N1CC(NC(=O)c2c(Br)nc(CNc3n[nH]c4cc(Cl)c(C(C)(C)C)cc34)n2C)C1 [Example 27, N-(1-acryloylazetidin-3-yl)-4-bromo-2-(((5-(tert-butyl)-6-chloro-1H-indazol-3-yl)amino)methyl)-1-methyl-1H-imidazole-5-carboxamide] | 8 |
| C=CC(=O)N1CC(NC(=O)c2c(C#N)nc(CNc3n[nH]c4cc(Cl)c(C(C)(C)C)cc34)n2C)C1 [Example 28, N-(1-acryloylazetidin-3-yl)-2-(((5-(tert-butyl)-6-chloro-1H-indazol-3-yl)amino)methyl)-4-cyano-1-methyl-1H-imidazole-5-carboxamide] | 70 |
| C=CC(=O)N1CC(NC(=O)c2c(Cl)nc(CNc3n[nH]c4cc(Cl)c(C(C)(C)C)cc34)n2C)C1 [Example 29, N-(1-acryloylazetidin-3-yl)-2-(((5-(tert-butyl)-6-chloro-1H-indazol-3-yl)amino)methyl)-4-chloro-1-methyl-1H-imidazole-5-carboxamide] | 6 |
| C=CC(=O)N1CC(NC(=O)c2c(F)nc(CNc3n[nH]c4cc(Cl)c(C(C)(C)C)cc34)n2C)C1 [Example 30, N-(1-acryloylazetidin-3-yl)-2-(((5-(tert-butyl)-6-chloro-1H-indazol-3-yl)amino)methyl)-4-fluoro-1-methyl-1H-imidazole-5-carboxamide] | 11 |
| C=CC(=O)N1CC(NC(=O)c2c(CC)nc(CNc3n[nH]c4cc(Cl)c(C(C)(C)C)cc34)n2C)C1 [Example 31, N-(1-acryloylazetidin-3-yl)-2-(((5-(tert-butyl)-6-chloro-1H-indazol-3-yl)amino)methyl)-4-ethyl-1-methyl-1H-imidazole-5-carboxamide] | 642 |
| C=CC(=O)N1CC(NC(=O)c2c(C(F)(F)F)nc(CNc3n[nH]c4cc(Cl)c(C(C)(C)C)cc34)n2C(C)C)C1 [Example 32, N-(1-acryloylazetidin-3-yl)-2-(((5-(tert-butyl)-6-chloro-1H-indazol-3-yl)amino)methyl)-1-isopropyl-4-(trifluoromethyl)-1H-imidazole-5-carboxamide] | 50 |
| C=CC(=O)N1CC(NC(=O)c2c(C(F)F)nc(CNc3n[nH]c4cc(Cl)c(C(C)(C)C)cc34)n2C(C)C)C1 [Example 33, N-(1-acryloylazetidin-3-yl)-2-(((5-(tert-butyl)-6-chloro-1H-indazol-3-yl)amino)methyl)-4-(difluoromethyl)-1-isopropyl-1H-imidazole-5-carboxamide] | 13 |
| C=CC(=O)N1CC(NC(=O)c2c(F)nc(CNc3n[nH]c4cc(Cl)c(C(C)(C)C)cc34)n2C(C)C)C1 [Example 34, N-(1-acryloylazetidin-3-yl)-2-(((5-(tert-butyl)-6-chloro-1H-indazol-3-yl)amino)methyl)-4-fluoro-1-isopropyl-1H-imidazole-5-carboxamide] | 13 |

Source: patent publication US20230181536A1, “ANTICANCER COMBINATION THERAPY WITH N-(1-ACRYLOYL-AZETIDIN-3-YL)-2-((1H-INDAZOL-3-YL)AMINO)METHYL)-1H-IMIDAZOLE-5-CARBOXAMIDE INHIBITOR OF KRAS-G12C” (TAIHO PHARMACEUTICAL CO., LTD., priority 2020, published 2023)
